{"source": "patent US20220095609A1", "about": "“FREEZING OF BIOLOGICAL MATERIAL” (SCI-GROUP AS, priority 2018, published 2022)", "key": {"[1]": {"system": "cells", "assay": "MTS bioassay, viability after freezing and thawing", "format": "cell-based", "text": "[…] the presence of a combined magnetic (0.2-0.3 T)-pulsing electric fields (20V (220V/m)-20kHZ), in the presence or absence of DMSO (0-5%) measured as the fraction of cells retaining their full proliferative capacity after freezing, monitored with a rapid bioassay-MTS-as an alternative to conventional plating efficiency testing.\nThe experiment included the standard method used by most researchers, i.e. freezing with 5% DMSO in a “Nalgene Mr Frosty” apparatus (Merck KgaA, Germany), operated with a 15 minutes phase-transition time corresponding to the state of the art freezing rate of 1 degree per minute.\n(§1) The cells were grown to 70% confluence in 162 cm^2 flasks as monolayer cultures in Ham's F12 medium supplemented with 10% fetal calf serum (FBS). The cells were kept in continuous exponential growth by re-culturing twice per week. Harvest for re-culturing or for freezing was done by removing the growth medium, rinsing two times in 1.5 ml trypsin EDTA solution (0.05% and 0.02% respectively), and incubating cultures for 5 min at 37° C. in the residual trypsin solution. The trypsinization was stopped by adding Ham's F12 medium with FBS.\n(§2) Cells were resuspended and counted using Countess Automated Cell counter with Trypan Blue Stain (0.4%) to estimate the cell viability.\n(§3) The cell suspension was transferred to 15 ml tube and centrifuged (200xg, 5 min, 4° C.). The supernatant was removed and the cell pellets were resuspended in cold FBS to give a final concentration of 2×10^6 cells/ml. 0.5 ml of the cell suspension was transferred to 2 ml cryo-tube. Equal volume (0.5 ml) freezing medium with or without DMSO-medium was added to each cryotube to give a final 5% concentration of DMSO and 1×10^6 cells per ml in each tube.\nAfter 15 days in liquid nitrogen samples were thawed and cells seeded for MTS assay as follows: • cells were transferred to 15 ml tubes containing 4 ml culture media (total volume of 4+1=5 ml) and centrifuged at 200×g, 10 min, 4° C. • cells were resuspended in 1 ml media with 1% FBS and further diluted 10 times to give a concentration of 1×10^5/ml based on the initial counting before freezing. • After dilution, 0.2 ml of cells from each freezing condition was seeded in 96 well plates and the plates were incubated at 37° C. until the next day. • After the overnight incubation, media was removed and 0.1 ml of a fresh 1% FBS media was added. 20 μl of MTS reagent was added. • Finally, OD490 values were read after 1-4 hours incubation. The number of viable cells/well were calculated based on a standard curve generated using ongoing cell cultures. The calculation was performed in GraphPad Prism 8, using four parameter nonlinear logistic regression and the curve fitting function."}, "[2]": {"system": "T98G glioblastoma cells", "assay": "Colony formation (plating efficiency) after freezing and thawing, T98G", "format": "cell-based, human", "settings": "Standard freezing with 5% DMSO (30 min -20° C., 45 min ~-80° C., liquid N2); T-98G", "text": "(§4) The objective was to test the importance of the duration of ice-formation time (=time to remove latent heat during ice formation) of seed stocks of two established human cells lines: T-47D breast cancer cells and T98G glioblastoma cells, for viability after thawing. In addition to variation in ice-forming time two variables have been tested: • Cells frozen without DMSO or with 5% DMSO • Cells frozen within a mixed strong magnetic (0.2-0.3 T)-pulsing electric (20V (220V/m)-20kHZ) field (hereinafter termed “Strong MAG/PEF”), or just outside the Field Box in a weak magnetic (0,005-0,008T)-pulsing electric (7-16V (75-185V/m)-20 kHz) (hereinafter “Weak MAG/PEF) field.\n(§5) The cells of both types were grown as monolayer cultures in RPMI 1640 medium (Gibco, Rockwill, Md., USA) supplemented with 10% fetal calf serum (Gibco), 2 mM L-glutamine, 200 units/I insulin and 1% penicillin/streptomycin (Gibco). […]\n(§6) For each cell type separate preparation of samples for freezing was performed by standard trypsin treatment of several flasks and pooling of the cells after removal of the trypsin solution and re-suspending of the cells in RPMI-medium. After pooling the cell numbers per ml were accurately counted on a flow cytometer and thereafter dilutions of cell suspensions suitable to obtain the concentration of cells desired for transfer to the cryo-tubes were made for each cell type. […]"}, "[3]": {"system": "adherent CHO cells (chinese hamster ovary cells K1)", "assay": "Colony formation (plating efficiency) after freezing and thawing, adherent CHO cells", "format": "cell-based", "text": "The objective was to test the importance of the duration of ice-formation (=time to remove latent heat during ice formation) of seed stocks of adherent CHO cells (chinese hamster ovary cells K1 for viability after thawing. In addition to variation in ice-forming time two variables have been tested: • Cells frozen without DMSO or with 5% DMSO • Cells frozen within a mixed strong magnetic (0,2-0,3T)-pulsing electric (20V (220V/m)-20kHZ) field (hereinafter termed “Strong MAG/PEF”), or just outside the Field Box in a weak magnetic (0,005-0,008T)-pulsing electric (7-16V (75-185V/m)-20 kHz) (hereinafter “Weak MAG/PEF) field.\nas §1, with “grown” for “grown to 70% confluence”, “serum.” for “serum (FBS).”\nas §2\nas §3, with “(200 g,” for “(200xg,”\nAfter 10 days in liquid nitrogen samples were thawed and cells seeded for colony formation. There were 3 parallel flasks for each sample tested. The control was the traditional procedure used in the laboratory with 5% DMSO and with 30 min in −20° C., 45 min in ˜−80° C. and final storage in liquid N2.\nThe flasks were incubated for colony formation in a Steri-cult 200 incubator operated at 37° C. and with 5% CO2 in the atmosphere. Incubation continued for six days. For counting of macroscopic colonies cells were fixed in ethanol and stained with methylene blue."}, "[4]": {"system": "T-47D breast cancer cells", "assay": "Colony formation (plating efficiency) after freezing and thawing, T-47D", "format": "cell-based, human", "settings": "Standard freezing with 5% DMSO (30 min -20° C., 45 min ~-80° C., liquid N2)", "text": "as §4, §5, §6"}}, "data": [{"molecule": "C[S+](C)[O-]", "note": "[DMSO, Dimethyl sulfoxide]", "values": [{"measurement": "difference in viability between 2 min and 3 min (optimal point) phase-transition time", "setting": "[1]; 1% DMSO", "value": 13, "unit": "%"}, {"measurement": "difference in viability between 3 min and 4 min phase-transition time", "setting": "[1]; 1% DMSO", "value": 39, "unit": "%"}, {"measurement": "percentage viability after freezing and thawing", "setting": "[1]; 1% DMSO, phase-transition time 1.4 min, magnetic 0.2-0.3 T, pulsing electric field", "value": 8, "unit": "%"}, {"measurement": "percentage viability after freezing and thawing", "setting": "[1]; 1% DMSO, phase-transition time 1.8 min, magnetic 0.2-0.3 T, pulsing electric field", "value": 26, "unit": "%"}, {"measurement": "percentage viability after freezing and thawing", "setting": "[1]; 1% DMSO, phase-transition time 2 min, magnetic 0.2-0.3 T, pulsing electric field", "value": 36, "unit": "%"}, {"measurement": "percentage viability after freezing and thawing", "setting": "[1]; 1% DMSO, phase-transition time 2.2 min, magnetic 0.2-0.3 T, pulsing electric field", "value": 35, "unit": "%"}, {"measurement": "percentage viability after freezing and thawing", "setting": "[1]; 1% DMSO, phase-transition time 2.4 min, magnetic 0.2-0.3 T, pulsing electric field", "value": 41, "unit": "%"}, {"measurement": "percentage viability after freezing and thawing", "setting": "[1]; 1% DMSO, phase-transition time 2.6 min, magnetic 0.2-0.3 T, pulsing electric field", "value": 45, "unit": "%"}, {"measurement": "percentage viability after freezing and thawing", "setting": "[1]; 1% DMSO, phase-transition time 2.7 min, magnetic 0.2-0.3 T, pulsing electric field", "value": 47, "unit": "%"}, {"measurement": "percentage viability after freezing and thawing", "setting": "[1]; 1% DMSO, phase-transition time 3 min, magnetic 0.2-0.3 T, pulsing electric field", "value": 47, "unit": "%"}, {"measurement": "percentage viability after freezing and thawing", "setting": "[1]; 1% DMSO, phase-transition time 4 min, magnetic 0.2-0.3 T, pulsing electric field", "value": 4, "unit": "%"}, {"measurement": "percentage viability after freezing and thawing", "setting": "[1]; 1% DMSO, phase-transition time 5.5 min, magnetic 0.2-0.3 T, pulsing electric field", "value": 4, "unit": "%"}, {"measurement": "percentage viability after freezing and thawing", "setting": "[1]; 2% DMSO, phase-transition time 1.4 min, magnetic 0.2-0.3 T, pulsing electric field", "value": 36, "unit": "%"}, {"measurement": "percentage viability after freezing and thawing", "setting": "[1]; 2% DMSO, phase-transition time 1.8 min, magnetic 0.2-0.3 T, pulsing electric field", "value": 57, "unit": "%"}, {"measurement": "percentage viability after freezing and thawing", "setting": "[1]; 2% DMSO, phase-transition time 2 min, magnetic 0.2-0.3 T, pulsing electric field", "value": 53, "unit": "%"}, {"measurement": "percentage viability after freezing and thawing", "setting": "[1]; 2% DMSO, phase-transition time 2.2 min, magnetic 0.2-0.3 T, pulsing electric field", "value": 61, "unit": "%"}, {"measurement": "percentage viability after freezing and thawing", "setting": "[1]; 2% DMSO, phase-transition time 2.4 min, magnetic 0.2-0.3 T, pulsing electric field", "value": 52, "unit": "%"}, {"measurement": "percentage viability after freezing and thawing", "setting": "[1]; 2% DMSO, phase-transition time 2.6 min, magnetic 0.2-0.3 T, pulsing electric field", "value": 63, "unit": "%"}, {"measurement": "percentage viability after freezing and thawing", "setting": "[1]; 2% DMSO, phase-transition time 2.7 min, magnetic 0.2-0.3 T, pulsing electric field", "value": 65, "unit": "%"}, {"measurement": "percentage viability after freezing and thawing", "setting": "[1]; 2% DMSO, phase-transition time 3 min, magnetic 0.2-0.3 T, pulsing electric field", "value": 66, "unit": "%"}, {"measurement": "percentage viability after freezing and thawing", "setting": "[1]; 2% DMSO, phase-transition time 4 min, magnetic 0.2-0.3 T, pulsing electric field", "value": 27, "unit": "%"}, {"measurement": "percentage viability after freezing and thawing", "setting": "[1]; 2% DMSO, phase-transition time 5.5 min, magnetic 0.2-0.3 T, pulsing electric field", "value": 17, "unit": "%"}, {"measurement": "percentage viability after freezing and thawing", "setting": "[1]; 5% DMSO, phase-transition time 1.8 min, magnetic 0.2-0.3 T, pulsing electric field", "value": 76, "unit": "%"}, {"measurement": "percentage viability after freezing and thawing", "setting": "[1]; 5% DMSO, phase-transition time 2.2 min, magnetic 0.2-0.3 T, pulsing electric field", "value": 74, "unit": "%"}, {"measurement": "percentage viability after freezing and thawing", "setting": "[1]; 5% DMSO, phase-transition time 2.4 min, magnetic 0.2-0.3 T, pulsing electric field", "value": 90, "unit": "%"}, {"measurement": "percentage viability after freezing and thawing", "setting": "[1]; 5% DMSO, phase-transition time 2.6 min, magnetic 0.2-0.3 T, pulsing electric field", "value": 98, "unit": "%"}, {"measurement": "percentage viability after freezing and thawing", "setting": "[1]; 5% DMSO, phase-transition time 2.7 min, magnetic 0.2-0.3 T, pulsing electric field", "value": 97, "unit": "%"}, {"measurement": "percentage viability after freezing and thawing", "setting": "[1]; 5% DMSO, phase-transition time 3 min, magnetic 0.2-0.3 T, pulsing electric field", "value": 97, "unit": "%"}, {"measurement": "percentage viability after freezing and thawing", "setting": "[1]; 5% DMSO, phase-transition time 4 min, magnetic 0.2-0.3 T, pulsing electric field", "value": 99, "unit": "%"}, {"measurement": "percentage viability after freezing and thawing", "setting": "[1]; 5% DMSO, phase-transition time 5.5 min, magnetic 0.2-0.3 T, pulsing electric field", "value": 99, "unit": "%"}, {"measurement": "percentage viability after freezing and thawing", "setting": "[1]; 5% DMSO, phase-transition time 15 min, standard method, Nalgene Mr Frosty, 1 degree per minute", "value": 68, "unit": "%"}, {"measurement": "Plating efficiency—PE (%)", "setting": "[2]", "value": 57, "unit": "%"}, {"measurement": "PE: plating efficiency (%)", "setting": "[3]; 5% DMSO, ice formation time 1 min 55 sec, Strong MAG/PEF", "value": 88, "unit": "%"}, {"measurement": "PE: plating efficiency (%)", "setting": "[3]; 5% DMSO, ice formation time 1 min 55 sec, Weak MAG/PEF", "value": 98, "unit": "%"}, {"measurement": "PE: plating efficiency (%)", "setting": "[3]; 5% DMSO, ice formation time 4 min 8 sec, Weak MAG/PEF", "value": 95, "unit": "%"}, {"measurement": "PE: plating efficiency (%)", "setting": "[3]; 5% DMSO, ice formation time 5 min 7 sec, Strong MAG/PEF", "value": 72, "unit": "%"}, {"measurement": "PE: plating efficiency (%)", "setting": "[3]; 5% DMSO, ice formation time 5 min 7 sec, Weak MAG/PEF", "value": 64, "unit": "%"}, {"measurement": "PE: plating efficiency (%)", "setting": "[3]; 4 min", "value": "107 (artefacted) %"}, {"measurement": "Plating efficiency—PE (%)", "setting": "[4]", "value": "80-90%"}]}]}
